This note sets out measurements from ChEMBL document CHEMBL1139964, “Biopartitioning micellar chromatography to predict mutagenicity of aromatic amines” (Eur J Med Chem, 2007).

≈ marks a conversion by molar mass, not a printed value.

Data set [1] is described as follows: Solubility in water. It is filed as physicochemical. The note with it: buffer.
The nature of data set [2]: Partition coefficient, log P of the compound. It counts as physicochemical. As to conditions: octanol/water.

As usually defined, the Solubility is how much of the substance goes into solution per volume. Take `Cc1cc(-c2ccc(N)c(C)c2)ccc1N` [ORTHOTOLIDINE]: the Solubility in data set [1] is recorded as 1.3 10^3g/L. Usually logP stands for a log measure of how a compound divides between an organic and an aqueous phase. A higher logP goes with a more lipophilic compound. Turning to `Nc1c(Br)cc([N+](=O)[O-])cc1[N+](=O)[O-]`, the logP in data set [2] amounted to 2.73.

Molecule `Nc1cccc2cc3ccccc3cc12` returned a Solubility in data set [1] of 2.59 g/L (≈ 13.4 mM). The same measure, in the same setting: with `Nc1ccc(Br)cc1` [4-BROMOANILINE] the figure was 707 g/L (≈ 4110 mM). On to `Nc1ccc(Cc2ccc(N)cc2)cc1`, for which the Solubility in data set [1] was 1 10^3g/L.

In turn, `Nc1ccc2c3c(cccc13)-c1ccccc1-2` registered a Solubility in data set [1] of 0.715 g/L (≈ 3.29 mM). As for `Nc1ccc2c(c1)Cc1ccccc1-2`, the Solubility in data set [1] is recorded as 8.78 g/L (≈ 48.4 mM). In turn, `Nc1ccc2ccc3cccc4ccc1c2c34` [AMINOPYRENE] had a logP in data set [2] of 4.99. The Solubility in data set [1] is 0.576 g/L (≈ 2.65 mM).

For the molecule `Nc1ccc2cc3ccccc3cc2c1` [2-AMINOANTHRACENE], the logP in data set [2] amounted to 2.62. In data set [1], this molecule came in with a Solubility of 1.3 g/L (≈ 6.73 mM).
